Measurements taken from PubChem BioAssay (NCI).
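Tested at 5 concentrations; 48 h exposure; 96-well plates; endpoints linearly interpolated, else capped at highest concentration. The concentration for full growth arrest is given as TGI.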

Assays:
Assay in all cases: DTP human tumour cell line panel, 48 h
786-0 renal = test system: 786-0 renal
A498 renal = test system: A498 renal
A549 NSCLC = test system: A549 NSCLC
ACHN renal = test system: ACHN renal
BT-549 breast = test system: BT-549 breast
CAKI-1 renal = test system: CAKI-1 renal
CCRF-CEM leukemia = test system: CCRF-CEM leukemia
COLO 205 colon = test system: COLO 205 colon
DLD-1 colon = test system: DLD-1 colon
DMS 114 small cell lung = test system: DMS 114 small cell lung
DMS 273 small cell lung = test system: DMS 273 small cell lung
DU-145 prostate = test system: DU-145 prostate
EKVX NSCLC = test system: EKVX NSCLC
HCC-2998 colon = test system: HCC-2998 colon
HCT-116 colon = test system: HCT-116 colon
HCT-15 colon = test system: HCT-15 colon
HL-60(TB) leukemia = test system: HL-60(TB) leukemia
HOP-62 NSCLC = test system: HOP-62 NSCLC
HOP-92 NSCLC = test system: HOP-92 NSCLC
HS 578T breast = test system: HS 578T breast
HT29 colon = test system: HT29 colon
IGROV1 ovarian = test system: IGROV1 ovarian
K-562 leukemia = test system: K-562 leukemia
KM12 colon = test system: KM12 colon
LOX IMVI melanoma = test system: LOX IMVI melanoma
LXFL 529 NSCLC = test system: LXFL 529 NSCLC
M14 melanoma = test system: M14 melanoma
M19-MEL melanoma = test system: M19-MEL melanoma
MALME-3M melanoma = test system: MALME-3M melanoma
MCF7 breast = test system: MCF7 breast
MDA-MB-231 breast = test system: MDA-MB-231 breast
MDA-MB-435 = test system: MDA-MB-435
MDA-N = test system: MDA-N
MOLT-4 leukemia = test system: MOLT-4 leukemia
NCI-H226 lung = test system: NCI-H226 lung
NCI-H23 lung = test system: NCI-H23 lung
NCI-H460 lung = test system: NCI-H460 lung
NCI-H522 lung = test system: NCI-H522 lung
NCI/ADR-RES ovarian = test system: NCI/ADR-RES ovarian
OVCAR-3 ovarian = test system: OVCAR-3 ovarian
OVCAR-4 ovarian = test system: OVCAR-4 ovarian
OVCAR-5 ovarian = test system: OVCAR-5 ovarian
OVCAR-8 ovarian = test system: OVCAR-8 ovarian
PC-3 prostate = test system: PC-3 prostate
RPMI-8226 leukemia = test system: RPMI-8226 leukemia
RXF 393 renal = test system: RXF 393 renal
RXF-631 renal = test system: RXF-631 renal
SF-268 CNS = test system: SF-268 CNS
SF-295 CNS = test system: SF-295 CNS
SF-539 CNS = test system: SF-539 CNS
SK-MEL-2 melanoma = test system: SK-MEL-2 melanoma
SK-MEL-28 melanoma = test system: SK-MEL-28 melanoma
SK-MEL-5 melanoma = test system: SK-MEL-5 melanoma
SK-OV-3 ovarian = test system: SK-OV-3 ovarian
SN12C renal = test system: SN12C renal
SNB-19 CNS = test system: SNB-19 CNS
SNB-75 CNS = test system: SNB-75 CNS
SNB-78 CNS = test system: SNB-78 CNS
SW-620 colon = test system: SW-620 colon
T-47D breast = test system: T-47D breast
TK-10 renal = test system: TK-10 renal
U251 CNS = test system: U251 CNS
UACC-257 melanoma = test system: UACC-257 melanoma
UACC-62 melanoma = test system: UACC-62 melanoma
UO-31 renal = test system: UO-31 renal
XF 498 CNS = test system: XF 498 CNS
KM20L2 colon = test system: KM20L2 colon
SR leukemia = test system: SR leukemia

COC(=O)C(CBr)CBr
TGI (786-0 renal): 8.91 µM
TGI (A498 renal): 31.8 µM
TGI (A549 NSCLC): 36.3 µM
TGI (ACHN renal): 10.1 µM
TGI (BT-549 breast): 6.58 µM
TGI (CAKI-1 renal): 10 µM
TGI (CCRF-CEM leukemia): 1.83 µM
TGI (COLO 205 colon): 3 µM
TGI (DLD-1 colon): 8.29 µM
TGI (DMS 114 small cell lung): 4.23 µM
TGI (DMS 273 small cell lung): 29.3 µM
TGI (DU-145 prostate): 31.9 µM
TGI (EKVX NSCLC): 21.5 µM
TGI (HCC-2998 colon): 10.9 µM
TGI (HCT-116 colon): 11.5 µM
TGI (HCT-15 colon): 3.75 µM
TGI (HL-60(TB) leukemia): 1.41 µM
TGI (HOP-62 NSCLC): 40.7 µM
TGI (HOP-92 NSCLC): 3.63 µM
TGI (HS 578T breast): 19.4 µM
TGI (HT29 colon): 11 µM
TGI (IGROV1 ovarian): 25.5 µM
TGI (K-562 leukemia): 4.29 µM
TGI (KM12 colon): 24.3 µM
TGI (LOX IMVI melanoma): 7.75 µM
TGI (LXFL 529 NSCLC): 3.22 µM
TGI (M14 melanoma): 4.72 µM
TGI (M19-MEL melanoma): 17.2 µM
TGI (MALME-3M melanoma): 4.93 µM
TGI (MCF7 breast): 20.6 µM
TGI (MDA-MB-231 breast): 4.36 µM
TGI (MDA-MB-435): 10.1 µM
TGI (MDA-N): 9.22 µM
TGI (MOLT-4 leukemia): 16.4 µM
TGI (NCI-H226 lung): 28.1 µM
TGI (NCI-H23 lung): 19.5 µM
TGI (NCI-H460 lung): 33.1 µM
TGI (NCI-H522 lung): 4.76 µM
TGI (NCI/ADR-RES ovarian): 8.45 µM
TGI (OVCAR-3 ovarian): 7.09 µM
TGI (OVCAR-4 ovarian): 8.58 µM
TGI (OVCAR-5 ovarian): 31.2 µM
TGI (OVCAR-8 ovarian): 8.83 µM
TGI (PC-3 prostate): 23 µM
TGI (RPMI-8226 leukemia): 3.97 µM
TGI (RXF 393 renal): 4.86 µM
TGI (RXF-631 renal): 8.96 µM
TGI (SF-268 CNS): 41.9 µM
TGI (SF-295 CNS): 31.1 µM
TGI (SF-539 CNS): 13.2 µM
TGI (SK-MEL-2 melanoma): 30.5 µM
TGI (SK-MEL-28 melanoma): 9.36 µM
TGI (SK-MEL-5 melanoma): 25.1 µM
TGI (SK-OV-3 ovarian): 33.8 µM
TGI (SN12C renal): 9.28 µM
TGI (SNB-19 CNS): 13.3 µM
TGI (SNB-75 CNS): 31.4 µM
TGI (SNB-78 CNS): 3.59 µM
TGI (SW-620 colon): 3.11 µM
TGI (T-47D breast): 7.22 µM
TGI (TK-10 renal): 10.8 µM
TGI (U251 CNS): 10.3 µM
TGI (UACC-257 melanoma): 12.5 µM
TGI (UACC-62 melanoma): 18.1 µM
TGI (UO-31 renal): 10.2 µM
TGI (XF 498 CNS): 4.54 µM

CCOC(=O)C1=C(C)N(NC(N)=O)C(C)(O)C12CCOC2=O (configuration not stated)
TGI (786-0 renal): > 100 µM
TGI (A498 renal): > 100 µM
TGI (A549 NSCLC): > 100 µM
TGI (ACHN renal): > 100 µM
TGI (CAKI-1 renal): > 100 µM
TGI (DLD-1 colon): > 100 µM
TGI (DMS 273 small cell lung): > 100 µM
TGI (EKVX NSCLC): > 100 µM
TGI (HCC-2998 colon): > 100 µM
TGI (HCT-116 colon): > 100 µM
TGI (HCT-15 colon): > 100 µM
TGI (HL-60(TB) leukemia): > 100 µM
TGI (HOP-62 NSCLC): > 100 µM
TGI (HT29 colon): > 100 µM
TGI (IGROV1 ovarian): > 100 µM
TGI (K-562 leukemia): > 100 µM
TGI (KM12 colon): > 100 µM
TGI (KM20L2 colon): > 100 µM
TGI (LOX IMVI melanoma): > 100 µM
TGI (LXFL 529 NSCLC): > 100 µM
TGI (M14 melanoma): > 100 µM
TGI (M19-MEL melanoma): > 100 µM
TGI (MALME-3M melanoma): > 100 µM
TGI (MOLT-4 leukemia): > 100 µM
TGI (NCI-H226 lung): > 100 µM
TGI (NCI-H460 lung): > 100 µM
TGI (NCI-H522 lung): > 100 µM
TGI (OVCAR-3 ovarian): > 100 µM
TGI (OVCAR-4 ovarian): > 100 µM
TGI (OVCAR-5 ovarian): > 100 µM
TGI (OVCAR-8 ovarian): > 100 µM
TGI (RPMI-8226 leukemia): > 100 µM
TGI (RXF-631 renal): > 100 µM
TGI (SF-268 CNS): > 100 µM
TGI (SF-295 CNS): > 100 µM
TGI (SF-539 CNS): > 100 µM
TGI (SK-MEL-2 melanoma): > 100 µM
TGI (SK-MEL-28 melanoma): > 100 µM
TGI (SK-MEL-5 melanoma): > 100 µM
TGI (SK-OV-3 ovarian): > 100 µM
TGI (SN12C renal): > 100 µM
TGI (SNB-19 CNS): > 100 µM
TGI (SNB-75 CNS): > 100 µM
TGI (SNB-78 CNS): 34.5 µM
TGI (SR leukemia): > 100 µM
TGI (SW-620 colon): > 100 µM
TGI (U251 CNS): > 100 µM
TGI (UACC-257 melanoma): > 100 µM
TGI (UACC-62 melanoma): > 100 µM
TGI (UO-31 renal): > 100 µM
TGI (XF 498 CNS): > 100 µM
